In ChEMBL document CHEMBL1201862, “PubChem BioAssay data set” (2004):
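Assay format: 96-well plates, 48-hour exposure. GI50 = concentration required for 50% inhibition of growth.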 Activity calls are given as the source filed them. Rule as the data show it: active = GI50 up to about 1.1 µM and inactive = higher.

Legend:
Assay in all cases: NCI anticancer screen, dose series, 48 h
786-0 = tested on: 786-0
OVCAR-3 = tested on: OVCAR-3
TK-10 = tested on: TK-10
NCI-H460 = tested on: NCI-H460
LOX IMVI = tested on: LOX IMVI
IGROV-1 = tested on: IGROV-1
K562 = tested on: K562
HOP-62 = tested on: HOP-62
SNB-78 = tested on: SNB-78
SK-MEL-5 = tested on: SK-MEL-5
SN12C = tested on: SN12C
MOLT-4 = tested on: MOLT-4
NCI-H226 = tested on: NCI-H226
KM-20L2 = tested on: KM-20L2
A549 = tested on: A549
SF-539 = tested on: SF-539
M19-MEL = tested on: M19-MEL
RPMI-8226 = tested on: RPMI-8226
OVCAR-5 = tested on: OVCAR-5
A498 = tested on: A498
HCC 2998 = tested on: HCC 2998
SK-OV-3 = tested on: SK-OV-3
KM12 = tested on: KM12
DMS-273 = tested on: DMS-273
Malme-3M = tested on: Malme-3M
LXFL 529 = tested on: LXFL 529
OVCAR-4 = tested on: OVCAR-4
M14 = tested on: M14
SW-620 = tested on: SW-620
DMS-114 = tested on: DMS-114
HT-29 = tested on: HT-29
HCT-15 = tested on: HCT-15
SK-MEL-28 = tested on: SK-MEL-28
SF-268 = tested on: SF-268
EKVX = tested on: EKVX
RXF 393 = tested on: RXF 393
U-251 = tested on: U-251
NCI-H522 = tested on: NCI-H522
HCT-116 = tested on: HCT-116
COLO 205 = tested on: COLO 205
HOP-92 = tested on: HOP-92
HL-60 = tested on: HL-60
UACC-62 = tested on: UACC-62
NCI-H23 = tested on: NCI-H23
UACC-257 = tested on: UACC-257
SNB-19 = tested on: SNB-19
HOP-18 = tested on: HOP-18
CCRF-CEM = tested on: CCRF-CEM
SF-295 = tested on: SF-295
DLD-1 = tested on: DLD-1
ACHN = tested on: ACHN
OVCAR-8 = tested on: OVCAR-8
RXF 631 = tested on: RXF 631
UO-31 = tested on: UO-31
CAKI-1 = tested on: CAKI-1
SR = tested on: SR
SNB-75 = tested on: SNB-75

Cc1ccc(-c2cc(-c3ccccc3)c(C#N)c(=O)n2C2OC(CO)C(O)C(O)C2O)cc1 (centres undefined)
GI50 (786-0): > 100 µM (inactive)
GI50 (OVCAR-3): > 100 µM (inactive)
GI50 (TK-10): > 100 µM (inactive)
GI50 (NCI-H460): > 100 µM (inactive)
GI50 (LOX IMVI): > 100 µM (inactive)
GI50 (IGROV-1): > 100 µM (inactive)
GI50 (K562): 86.7 µM (inactive)
GI50 (HOP-62): > 100 µM (inactive)
GI50 (SNB-78): > 100 µM (inactive)
GI50 (SK-MEL-5): 58.5 µM (inactive)
GI50 (SN12C): > 100 µM (inactive)
GI50 (MOLT-4): 21.1 µM (inactive)
GI50 (NCI-H226): > 100 µM (inactive)
GI50 (KM-20L2): > 100 µM (inactive)
GI50 (A549): > 100 µM (inactive)
GI50 (SF-539): > 100 µM (inactive)
GI50 (M19-MEL): > 100 µM (inactive)
GI50 (RPMI-8226): > 100 µM (inactive)
GI50 (OVCAR-5): > 100 µM (inactive)
GI50 (A498): > 100 µM (inactive)
GI50 (HCC 2998): > 100 µM (inactive)
GI50 (SK-OV-3): > 100 µM (inactive)
GI50 (KM12): > 100 µM (inactive)
GI50 (DMS-273): > 100 µM (inactive)
GI50 (Malme-3M): > 100 µM (inactive)
GI50 (LXFL 529): > 100 µM (inactive)
GI50 (OVCAR-4): > 100 µM (inactive)
GI50 (M14): > 100 µM (inactive)
GI50 (SW-620): > 100 µM (inactive)
GI50 (DMS-114): > 100 µM (inactive)
GI50 (HT-29): > 100 µM (inactive)
GI50 (HCT-15): > 100 µM
GI50 (SK-MEL-28): > 100 µM (inactive)
GI50 (SF-268): > 100 µM (inactive)
GI50 (EKVX): > 100 µM (inactive)
GI50 (RXF 393): > 100 µM (inactive)
GI50 (U-251): > 100 µM (inactive)
GI50 (NCI-H522): > 100 µM (inactive)
GI50 (HCT-116): > 100 µM (inactive)
GI50 (COLO 205): > 100 µM (inactive)
GI50 (HOP-92): > 100 µM (inactive)
GI50 (HL-60): > 100 µM (inactive)
GI50 (UACC-62): > 100 µM (inactive)
GI50 (NCI-H23): > 100 µM (inactive)
GI50 (UACC-257): > 100 µM (inactive)
GI50 (SNB-19): > 100 µM (inactive)
GI50 (HOP-18): > 100 µM (inactive)
GI50 (CCRF-CEM): > 100 µM (inactive)
GI50 (SF-295): > 100 µM (inactive)
GI50 (DLD-1): > 100 µM (inactive)
GI50 (ACHN): > 100 µM (inactive)
GI50 (OVCAR-8): > 100 µM (inactive)
GI50 (RXF 631): > 100 µM (inactive)
GI50 (UO-31): > 100 µM (inactive)

CCOC(=O)C1(C)CCC(C(C(=O)O)C(=O)O)CC1=O (centres undefined)
GI50 (786-0): > 100 µM (inactive)
GI50 (OVCAR-3): > 100 µM (inactive)
GI50 (TK-10): > 100 µM (inactive)
GI50 (NCI-H460): > 100 µM (inactive)
GI50 (LOX IMVI): > 100 µM (inactive)
GI50 (IGROV-1): > 100 µM (inactive)
GI50 (HOP-62): > 100 µM (inactive)
GI50 (SNB-78): > 100 µM (inactive)
GI50 (SK-MEL-5): > 100 µM (inactive)
GI50 (SN12C): > 100 µM (inactive)
GI50 (MOLT-4): > 100 µM (inactive)
GI50 (NCI-H226): > 100 µM (inactive)
GI50 (KM-20L2): > 100 µM (inactive)
GI50 (A549): > 100 µM (inactive)
GI50 (SF-539): > 100 µM (inactive)
GI50 (M19-MEL): > 100 µM (inactive)
GI50 (RPMI-8226): > 100 µM (inactive)
GI50 (OVCAR-5): > 100 µM (inactive)
GI50 (A498): > 100 µM (inactive)
GI50 (HCC 2998): > 100 µM (inactive)
GI50 (SK-OV-3): > 100 µM (inactive)
GI50 (KM12): > 100 µM (inactive)
GI50 (DMS-273): > 100 µM (inactive)
GI50 (Malme-3M): > 100 µM (inactive)
GI50 (LXFL 529): > 100 µM (inactive)
GI50 (OVCAR-4): > 100 µM (inactive)
GI50 (M14): > 100 µM (inactive)
GI50 (SW-620): > 100 µM (inactive)
GI50 (DMS-114): > 100 µM (inactive)
GI50 (HT-29): > 100 µM (inactive)
GI50 (HCT-15): > 100 µM
GI50 (SK-MEL-28): > 100 µM (inactive)
GI50 (SF-268): > 100 µM (inactive)
GI50 (EKVX): > 100 µM (inactive)
GI50 (RXF 393): > 100 µM (inactive)
GI50 (U-251): > 100 µM (inactive)
GI50 (CAKI-1): > 100 µM (inactive)
GI50 (SR): > 100 µM (inactive)
GI50 (NCI-H522): > 100 µM (inactive)
GI50 (HCT-116): > 100 µM (inactive)
GI50 (COLO 205): > 100 µM (inactive)
GI50 (HOP-92): > 100 µM (inactive)
GI50 (HL-60): > 100 µM (inactive)
GI50 (UACC-62): > 100 µM (inactive)
GI50 (SNB-75): > 100 µM (inactive)
GI50 (UACC-257): > 100 µM (inactive)
GI50 (SNB-19): > 100 µM (inactive)
GI50 (HOP-18): > 100 µM (inactive)
GI50 (CCRF-CEM): > 100 µM (inactive)
GI50 (SF-295): > 100 µM (inactive)
GI50 (DLD-1): > 100 µM (inactive)
GI50 (ACHN): > 100 µM (inactive)
GI50 (OVCAR-8): > 100 µM (inactive)
GI50 (RXF 631): > 100 µM (inactive)
GI50 (UO-31): > 100 µM (inactive)
